Columns and labels:
[1] = tested on: matrix metalloprotease (MMP); assay: Gelatin zymography of conditioned media (MMP secretion/activity); assay type: cell-based, human; conditions: 40,000 HT-1080 cells treated 6 hours
Method: 40,000 HT-1080 cells were treated for 6 hours with novobiocin or nalidixic acid (as a control) at the given concentrations. […] Two bands (A and B) correspond to unidentified MMPs. (Image inverted for clarity.)
40,000 HT-1080 cells were treated for 6 hours with novobiocin or nalidixic acid at the given concentrations. The conditioned media from treated cells was separated using a SDS-PAGE gel containing 10 mg/mL gelantin. SDS was removed from the gel using 2.5% Triton-X-100 for 30 minutes at room temperature. Proteins were allowed to digest the gelatine in digestion buffer (0.1M […], pH 8.0, 5 mM CaCl2, 0.04% NaN3) for 48 hours at 37° C. Gels were coomassie-stained and dried for densitometry. Parallel gels were silver stained to show equal loading of protein (data not shown).

HT-1080 cells [2] = assay: Invasion assay after 1 hour pre-treatment with novobiocin or nalidixic acid; assay type: cell-based, human; conditions: cells pre-treated for 1 hour; normalized to no drug control; result in words
Method: HT-1080 cells were pre-treated for 1 hour with novobiocin or nalidixic acid and an invasion assay was performed. […] Viability of cells in this assay was not affected (data not shown). Each data point is normalized to the no drug control and represents the mean.+−.s.e.m. of 2 experiments in triplicate.
(§1) The ChemoTx® system (Neuro Probe Inc. #106-8, Gaithersburg) was used as a disposable chemotaxis/cell migration chamber in a 96 well format with an 8 μm filter Track etched Polycarbonate pore size, 5.7 mm diameter/site.
(§2) 13.3 μl of 0.3 mg/ml Matrigel (see Example 8) diluted in cold Dulbeccos PBS (Gibco #14040-091) was applied on the membrane filter of the 96-well plate on row B-H and on row A0.3 μg/site of mouse collagen, type IV (Becton-Dickenson #354233) was diluted in 0.05 M HCL (Sigma #945-50) and was incubated over night at 20° C. in a desiccator for gelation, HT-1080 cells were grown to 70-80% confluence in DMEM supplemented with MEM non-essential amino acids (IX, Gibco #11140050) and Penicillin/Streptomycin (1×, Gibco #15140122) with 10% FBS (Hyclone #SH30070.03). […] After scraping the non-migrating cells from the top of the membrane (except the Standard curve on row A) fluorescence of cells, which had migrated through the membrane (not migrated in case of the Standard curve), was measured on the Tecan Spectrafluor Plus fluorescence plate reader (excitation: 544, emission: 590 nm). […]

MMP2 (72 kDa gelatinase) = assay: Zymography of secreted MMP2 after geldanamycin treatment; assay type: cell-based, human; conditions: HT-1080 cells, 20 μM in serum-free media
Method: HT-1080 cells were treated with 20 μM geldanamycin (GA) in serum-free media and assayed by zymography. MMP2 (72 kDa gelatinase) activity was decreased by ˜35% after GA treatment. Total protein content was visualized by silver staining to ensure equal loading.
We then applied a known Hsp90 inhibitor, geldanamycin, to HT-1080 cells to test whether inhibition of Hsp90 reduced MMP2 activity. HT-1080 cells were treated with 20 μM geldanamycin (GA) in serum-free media and secreted MMP2 was assayed by zymography. MMP2 (72 kDa gelatinase) activity was decreased by ˜35%; p<0.01 after GA treatment. Total protein content in conditioned media was visualized by silver staining to ensure equal loading. (See, FIG. 18).

HT-1080 cells [3] = assay: In vitro invasion assay with geldanamycin or GA-beads (Example 8); assay type: cell-based, human; conditions: 10 μM for 1 hour; eliminated when activated MMP2 (100 ng) was added; data not shown
HT-1080 cells [4] = assay: Invasion assay with FITC-labelled antibodies and CALI (Example 9.1); assay type: cell-based, human; conditions: FITC-labelled antibody, 300 W blue-filtered light for one hour; result in words
Method: Each bar is normalized to dark control and represents the mean.+−.s.e.m of at least 2 experiments in triplicate.
as §1, §2

HT-1080 cells [5] = assay: Viability of cells in the novobiocin invasion assay; assay type: cell-based, human; conditions: data not shown
Method: 8×10^6 HT-1080 cells/mL were pretreated for 1 hour with novobiocin or nalidixic acid at the concentrations shown and an invasion assay was performed as described in Example 9.1. […] Viability of novobiocin-treated cells in this assay was not affected (data not shown). Each data point is normalized to the no drug control and represents the mean.+−.s.e.m. of 2 experiments in triplicate.

HT-1080 cells [6] = assay: FACS analysis for tumor cell specific binding; parameters: species or system human; conditions: 10 μg/ml scFv; HT-1080 versus HS-27 control cells
Method: The binding activity of scFv1 to HT-1080 cells (bold line) and to HS-27 cells (thin line) as control is illustrated.
To test the ability of purified anti HT-1080 scFv to bind specifically to target cells, we performed a fluorescence-activated cell sorter (FACS) analysis using HT-1080 cells (ATCC CCL-121) and Hs-27 cells (10^6 cells/ml) as control cell line (see Figures). Cells were incubated with 10 μg/ml of pure scFv in CellWash (BD (Becton, Dickinson and Company) #349524) for 20 min at 4° C., washed, and bound scFv's were detected with a secondary FITC labeled anti E-tag mab (Amersham #27-9412-01). Samples were washed and analyzed on a Becton Dickinson FACSscan. […] The thin line represents the control cell line (HS-27) and the bold line the HT-1080 cells. scFv1 specifically stains the tumor cell lines with up to 10 fold higher signal compared to the control cell line.

HT-1080 cells [7] = assay: Cell-matrix adhesion assay (Collagen S type I); assay type: cell-based, human; conditions: FITC labeled scFv, assay with CALI; data not shown
Method: 96-well plates (TPP #9296) (cell culture treated) were coated in Row B-H with collagen S type I 1 μg/well (Roche #10982929) in Dulbeccos PBS (Gibco #14040-091) and in Row A well 10-12 were coated with 2% BSA (Sigma #A-7030)/Dulbeccos PBS at 4° C. over night. The plate was washed with Dulbeccos PBS, blocked Row B-H and Row A well 10-12 with 2% BSA/Dulbeccos PBS for 1 h at 37° C. and washed again with Dulbeccos PBS. […] Fluorescence of cells, which had adhered to the Collagen S type 1 (not adhered in case of the Standard curve), was measured on the Fluostar Galaxy (bMG) microplate reader using excitation/emission wavelengths of 370/460 nm. scFv1 inhibited the adhesion of HT-1080 cells to Collagen S type 1 by 50%. […]

CCn1cc(C(=O)O)c(=O)c2ccc(C)nc21 [nalidixic acid]
reduction of MMP enzyme activity ([1]; zymography): no reduction of enzyme activity | effect on invasion of HT-1080 cells (HT-1080 cells [2]): no effect on invasion

COC1=C2C[C@@H](C)C[C@H](OC)[C@H](O)[C@@H](C)/C=C(\C)[C@H](OC(N)=O)[C@@H](OC)/C=C\C=C(/C)C(=O)NC(=CC1=O)C2=O [geldanamycin]
decrease of MMP2 (72 kDa gelatinase) activity (MMP2 (72 kDa gelatinase)): ~35% | decrease of invasion of HT-1080 cells (HT-1080 cells [3]): ~35%

JB1: FITC-labeled anti-beta 1 integrin monoclonal antibody (JB1, Chemicon #MAB1963), positive control
reduction of invasion after exposure to light (HT-1080 cells [4]): significant (p<0.01, unpaired t-test) reduction of invasion

CO[C@@H]1[C@@H](OC(N)=O)[C@@H](O)[C@H](Oc2ccc3c(O)c(NC(=O)c4ccc(O)c(CC=C(C)C)c4)c(=O)oc3c2C)OC1(C)C [novobiocin]
decrease of MMP activity ([1]; highest concentration tested, zymography densitometry): > 75% | effect on invasion of HT-1080 cells (HT-1080 cells [2]): dose-dependent inhibition of invasion | viability of treated cells (HT-1080 cells [5]): not affected

B1: scFv1: single chain Fv antibody fragment from phage library of mice immunized with HT-1080 cells; SEQ ID NO: 1 (protein, listed as Mus sp.)
scFv: QVQLKESGAELVKPGASVKLSCTASGFNIKDYYMHWVKQRTEQGLEWIGRIDPEDGETKYAPKFQGKATITADTSSNTAYLQLSSLTSEDTAVYYCARSYDYAMDYWGQGTTVTVSTGGGGSGGGGSGGGGSALQIVLTQSPALMSASPGEKVTMTCSASSSVSYMHWYQQKSGTSPKRWIYDTSKLASGVPARFSGSGSGTSYSLTISSMEAEDAATYYCQQWSSNPLTFGAGTKLELKAAAGAPVPYPDPLEPRGAASAWSHPQFEK
FACS signal on tumor cell line compared to control cell line (HT-1080 cells [6]): up to 10 fold | inhibition of adhesion of HT-1080 cells to Collagen S type 1 (HT-1080 cells [7]): 50%

Reference: patent US9068987B2, “Inhibitors of extracellular HSP90” (TRUSTEES OF TUFTS COLLEGE, priority 2003, dated 2015)
